Data set [1] concerns E. coli BL21. The conditions noted are these: BL21, 17 h. The method in brief: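 EUCAST broth microdilution in Mueller-Hinton medium; end-exponential culture diluted to 0.005 McF (~1.5x10^6 CFU/mL) before 1:1 mixing with two-fold peptide dilutions (0.75 to 100 μg/mL), triplicates.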
Data set [2] concerns E. coli XL1-Red (ancestor strain). The format is cell-based. The conditions noted are these: XL1-Red (ancestor strain, 17 h). Here is the method:
In a previous study, we generated a P2-resistant strain by subculturing the hypermutable E. coli XL1-Red, which has a 5 000-fold higher mutation rate than wildtype bacteria, at the sub-MIC concentration of P2 for 27 days. […] The MIC of a few categories of P2 variants were determined to investigate whether P2 antimicrobial activity can be restored against P2-resistant bacteria via structure modification. […] The amount of intracellularly accumulated P2_VFV in P2-resistant strains was much higher than P2 (Fig 5A), which was sufficient to induce cell death (FAM^+Draq7^+ cells) (Fig 5B). […] (Fig 5C).
The peptide MIC was determined via the broth microdilution assay according to the EUCAST guideline, using 96-well polystyrene flat-bottom microtiter plates (BD Biosciences). Briefly, a single colony was inoculated in 5 mL Mueller-Hinton (MH) medium and incubated, while shaking at 37°C, to the end-exponential growth phase. The bacterial culture was subsequently diluted to 0.005 McFarland (McF) (~1.5x10^6 CFU/mL) with fresh MH medium. Two-fold serial peptide-dilutions were prepared in 50 μL MH medium resulting in a concentration range of 0.75 to 100 μg/mL (at least three wells for each concentration). […] The MIC was determined as the lowest peptide concentration without visible bacterial growth.

The test system of data set [3] is K. pneumoniae clinical isolates. The format is cell-based, Klebsiella pneumoniae. The conditions noted are these: 17 h. An excerpt:
To address the emerging antibiotic resistance issue, it is not only required to develop active antibiotics against wildtype bacteria, but also against the clinically isolated multidrug-resistant strains. Therefore, we determined whether P2 variants with a 4-fold lower MICs (P2_A5F, V7Y (P2), P2_H12_GV, P2_H12_PEG) (S12 Table) will also show improved antimicrobial activity against these multidrug-resistant strains. Since a high net positive charge could carry inherent developability challenges, we further explored the therapeutic potential of P2 variants with reduced net charge (P2_4R_GV and P2_4R_L) (S12 Table) by determining their antimicrobial activity against these clinically isolated multidrug-resistant strains. […]
The peptide MIC was determined via the broth microdilution assay according to the EUCAST guideline, using 96-well polystyrene flat-bottom microtiter plates (BD Biosciences). […] The MIC was determined as the lowest peptide concentration without visible bacterial growth.

The test system of data set [4] is E. coli ATCC clinical isolates. The experiment in a line: microbe, parasite or virus in culture. The format is cell-based. An excerpt:
To address the emerging antibiotic resistance issue, it is not only required to develop active antibiotics against wildtype bacteria, but also against the clinically isolated multidrug-resistant strains. Therefore, we determined whether P2 variants with a 4-fold lower MICs (P2_A5F, V7Y (P2), P2_H12_GV, P2_H12_PEG) (S12 Table) will also show improved antimicrobial activity against these multidrug-resistant strains. Since a high net positive charge could carry inherent developability challenges, we further explored the therapeutic potential of P2 variants with reduced net charge (P2_4R_GV and P2_4R_L) (S12 Table) by determining their antimicrobial activity against these clinically isolated multidrug-resistant strains. The mode of action of these derivatives remains to be inducing protein aggregation in bacteria as shown by the formation of IBs stained by pFTAA after Pept-in treatment (P2, P2-4R-GV, P2_A5F, V7Y (P2), P2_H12_GV, P2_H12_PEG) (S6A Fig) and the presence of a large number of proteins with different molecular weights in purified IBs as shown by the Coomassie staining (S6B Fig), in contrast to the absence of pFTAA staining (S6A Fig) and the presence of only two faint protein bands (S6B Fig) for buffer and control peptide treated bacteria. For clinically isolated multidrug-resistant strains, in addition to the 34 clinical isolates of E. coli ATCC, we added 12 Acinetobacter baumannii (A. baumannii) isolates and 12 Klebsiella pneumoniae (K. pneumoniae) isolates to broaden the selection of the bacterial spectrum.
The peptide MIC was determined via the broth microdilution assay according to the EUCAST guideline, using 96-well polystyrene flat-bottom microtiter plates (BD Biosciences). Briefly, a single colony was inoculated in 5 mL Mueller-Hinton (MH) medium and incubated, while shaking at 37°C, to the end-exponential growth phase. The bacterial culture was subsequently diluted to 0.005 McFarland (McF) (~1.5x10^6 CFU/mL) with fresh MH medium. […] The MIC was determined as the lowest peptide concentration without visible bacterial growth.

Data set [5] concerns HEK 293T cells. The experiment in a line: CellTiter Blue assay. The format is cell-based, human. The conditions noted are these: about 16 hours treatment, viability normalised to vehicle. On the procedure:
HEK 293T cells (ATCC CRL-3216) were grown in DMEM medium, supplemented with 10% FBS, 1 mM sodium pyruvate, non-essential amino acids. 100 μL of 10 000 cells were grown in flat-bottom 96-well plates (Fischer Scientific) overnight until cells are attached to the plate. Peptides were dissolved with Mini-plasco Nacl 0.9% (B. Braun) to 2 mg/mL and diluted to indicated concentrations using cell culture medium. Cells were treated by adding 100 μL peptides to each well for about 16 hours. Cells lysed with 1% Triton X-100 was included as a positive control. The toxicity of the peptide treatments was evaluated using the CellTiter-Blue Cell Viability Assay according to the instructions of the manufacturer (Promega, USA). The metabolic activity of viable cells is measured by recording fluorescence intensity at 590 nm after excitation at 560 nm. Cell viability is determined by normalising the fluorescence intensity of peptide- or triton-treated cells to the vehicle-treated sample.

≈ marks a conversion by molar mass, not a printed value. Where “and” joins values, the source holds several entries; their conditions need not be identical. Equal entries are not always repeated. Where two headings read alike, the source gives them in different places. Positions of bridges follow the written chain, without caps; N, C: chain ends. Residues, ends and D or L forms follow the SMILES beside them.

For the compound `CC(C)C[C@@H]1NC(=O)CNC(=O)[C@H](CCCNC(=N)N)NC(=O)[C@H](C(C)C)NC(=O)[C@H](CCCNC(=N)N)NC(=O)[C@H](CCCNC(=N)N)NC(=O)[C@H](C(C)C)NC(=O)[C@H](CC(C)C)NC(=O)[C@H](C)NC(=O)[C@H](CC(C)C)NC(=O)CNC(=O)[C@H](CC(C)C)NC(=O)[C@@H](NC(=O)[C@@H](N)CCCNC(=N)N)CSSC[C@@H](C(=O)O)NC(=O)[C@H](CO)NC(=O)CNC(=O)[C@H](CCCNC(=N)N)NC(=O)[C@H](CCCNC(=N)N)NC(=O)[C@H](CC(C)C)NC(=O)[C@H](C)NC(=O)[C@H](CC(C)C)NC(=O)CNC1=O` [Peptide P2_H6] (H-RCLGLALVRRVRGLGLALRRGSC-OH; disulfide 2-23), in data set [1], the “BL21 MIC, SS bond” value worked out at 6.25 µg/mL and the “BL21 MIC, no SS bond” value was 12.5 µg/mL. Also, the “MIC, Ancestor” value in data set [2] was 3.13 µg/mL (≈ 1.25 µM).
Regarding `CC(C)C[C@H](NC(=O)CNC(=O)[C@H](CCCNC(=N)N)NC(=O)[C@@H]1CCCN1C(=O)[C@H](CCCNC(=N)N)NC(=O)[C@H](CCCNC(=N)N)NC(=O)[C@H](Cc1ccc(O)cc1)NC(=O)[C@H](CC(C)C)NC(=O)[C@H](C)NC(=O)[C@H](CC(C)C)NC(=O)CNC(=O)[C@H](CC(C)C)NC(=O)CNC(=O)[C@@H](N)CCCNC(=N)N)C(=O)NCC(=O)N[C@@H](CC(C)C)C(=O)N[C@@H](C)C(=O)N[C@@H](CC(C)C)C(=O)N[C@@H](Cc1ccc(O)cc1)C(=O)N[C@@H](CCCNC(=N)N)C(=O)N[C@@H](CCCNC(=N)N)C(=O)O` [V7Y (P2)] (H-RGLGLALYRRPRGLGLALYRR-OH), the MIC amounted to 8 µg/mL (≈ 3.29 µM) in data set [3] and 8 µg/mL (≈ 3.29 µM) in data set [4] (ATCC clinical isolates, 17 h). Further, in data set [1], the “BL21 MIC” value was found to be 3.13 µg/mL.
`NC[C@H]1O[C@H](O[C@H]2[C@H](O)[C@@H](O[C@H]3O[C@H](CO)[C@@H](O)[C@H](N)[C@H]3O)[C@H](N)C[C@@H]2N)[C@H](N)C[C@@H]1O` [Tobramycin]: the MIC is 1 µg/mL (≈ 2.14 µM) in data set [4] (Escherichia coli, S12 Table, each table row is one E. coli clinical isolate (34 isolates), highest concentration tested 32 μg/mL, read-out: MIC); 0.5 µg/mL and >1 µg/mL in data set [4] (S12 Table, each table row is one E. coli clinical isolate (34 isolates), highest concentration tested 32 μg/mL).
Consider `CC(C)C[C@H](NC(=O)CNC(=O)[C@H](CCCNC(=N)N)NC(=O)[C@@H]1CSSC[C@H](NC(=O)[C@@H](NC(=O)[C@H](CC(C)C)NC(=O)[C@H](C)NC(=O)[C@H](CC(C)C)NC(=O)CNC(=O)[C@H](CC(C)C)NC(=O)CNC(=O)[C@@H](N)CCCNC(=N)N)C(C)C)C(=O)N[C@@H](CCCNC(=N)N)C(=O)N[C@@H](CCCNC(=N)N)C(=O)NCC(=O)N[C@@H](C(C)C)C(=O)N1)C(=O)NCC(=O)N[C@@H](CC(C)C)C(=O)N[C@@H](C)C(=O)N[C@@H](CC(C)C)C(=O)N[C@H](C(=O)N[C@@H](CCCNC(=N)N)C(=O)N[C@@H](CCCNC(=N)N)C(=O)O)C(C)C` [Peptide P2_H12_GV] (H-RGLGLALVCRRGVCRGLGLALVRR-OH; disulfide 9-14), for which, in data set [1], the “BL21 MIC” value came out at 3.13 µg/mL; the “BL21 MIC, SS bond” value came out at 3.13 µg/mL; the “BL21 MIC, no SS bond” value worked out at 6.25 µg/mL. Besides, the “MIC, Ancestor” value in data set [2] stood at 3.13 µg/mL (≈ 1.22 µM).
Consider `CC(C)C[C@H](NC(=O)CNC(=O)[C@H](CCCNC(=N)N)NC(=O)[C@H](CC(C)C)NC(=O)[C@H](C)NC(=O)[C@H](CCCNC(=N)N)NC(=O)[C@@H](NC(=O)[C@H](CC(C)C)NC(=O)[C@H](C)NC(=O)[C@H](CC(C)C)NC(=O)CNC(=O)[C@H](CC(C)C)NC(=O)CNC(=O)[C@@H](N)CCCNC(=N)N)C(C)C)C(=O)NCC(=O)N[C@@H](CC(C)C)C(=O)N[C@@H](C)C(=O)N[C@@H](CC(C)C)C(=O)N[C@H](C(=O)N[C@@H](C)C(=O)N[C@@H](CCCNC(=N)N)C(=O)O)C(C)C` [Peptide P2_4R_L] (H-RGLGLALVRALRGLGLALVAR-OH), for which the “toxicity on HEK 293T cells” value in data set [5] is “induced toxicity effects”.
